The target in test [1] is Recombinant human IDO1 (Homo sapiens, UniProt P14902). Kind of test: IDO1 Enzymatic Assay. The following applies: recombinant human IDO1 40 nM, L-tryptophan 100 μM, 40 min room temperature, N′-formylkynurenine absorbance 321 nm; read-out: IDO1 biochemical activity*. As to the method: (§1) The IDO1 biochemical inhibitory activity is determined by measuring the decrease in N′-formylkynurenine from tryptophan catalyzed by IDO1 enzyme. Recombinant human IDO1 (40 nM), L-tryptophan (100 μM), L-ascorbic acid (20 mM), methylene Blue (20 μM), catalase (0.2 mg/mL), and serial dilutions of the test compounds in a total volume of […] containing DMSO (with final DMSO concentration of 0.5%) and a pH 7.5 buffer containing potassium phosphate (50 mM) were added into each well in a 96-well plate. After incubation at room temperature for 40 min, the absorbance of the reaction mixture was read at 321 nm to measure the formation of N′-formylkynurenine by SpectraMax microplate reader. Percent inhibition of the test compounds was determined by measuring the decrease in N′-formylkynurenine as compared to the control of DMSO vehicle, which was calculated by formula of (WC−WT)/WC, where WC is the mean absorbance of the control well minus blank well; WT is the mean absorbance of the test well minus the blank well. Data was analyzed by GraphPad Prism 5 and the IC50 values were obtained by non-linear regression.
Recombinant human IDO1, sequence (P14902 whole entry): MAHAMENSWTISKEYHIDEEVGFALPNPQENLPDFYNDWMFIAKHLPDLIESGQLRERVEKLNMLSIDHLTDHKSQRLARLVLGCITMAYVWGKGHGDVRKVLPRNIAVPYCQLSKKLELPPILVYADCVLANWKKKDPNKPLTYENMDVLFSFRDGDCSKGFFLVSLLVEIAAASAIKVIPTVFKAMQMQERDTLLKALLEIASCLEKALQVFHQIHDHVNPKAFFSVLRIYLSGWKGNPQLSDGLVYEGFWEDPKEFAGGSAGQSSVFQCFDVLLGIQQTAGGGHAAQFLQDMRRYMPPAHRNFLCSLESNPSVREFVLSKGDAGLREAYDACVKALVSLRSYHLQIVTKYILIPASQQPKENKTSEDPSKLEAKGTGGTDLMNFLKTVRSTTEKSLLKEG
The IC50 values of IDO1 biochemical activity for the examples disclosed herein are listed in Table 2, A: ≤0.1 μM; B: >0.10 μM and ≤0.5 μM; C: >0.5 μM and ≤1.0 μM; and D: >1.0 μM.

Test [2] addresses Recombinant human TDO2 (Homo sapiens, UniProt P48775). The test is described as follows: TDO2 Enzymatic Assay. Type of test: biochemical. The following applies: recombinant human TDO2 200 nM, L-tryptophan 300 μM, 40 min room temperature, N′-formylkynurenine absorbance 321 nm; read-out: TDO2 bichemical activity*. The method, then:
as §1, with “TDO2” for “IDO1”, “TDO2 (200” for “IDO1 (40”, “(300” for “(100”, “(WC-WT)/WC,” for “(WC−WT)/WC,”
The IC50 values of TDO2 biochemical activity for the examples disclosed herein are listed in Table 2, A: ≤0.1 μM; B: >0.10 μM and ≤0.5 μM; C: >0.5 μM and ≤1.0 μM; and D: >1.0 μM.

Test [3] addresses T1, TDO2 in A172 cancer cells (Homo sapiens, UniProt P48775).
T1 construct: endogenous in cells; host or cells: A172 cancer cells
Kind of test: TDO2 Cellular Assay (kynurenine production in A172 cancer cells). As to conditions: L-Trp 1 mM, 24 hours incubation, kynurenine at 490 nm. Type of test: cell-based. The method in brief: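 A172 cells seeded overnight, then given 1 mM L-Trp and test compound (0–25 μM, 0.25% DMSO) for 24 h at 37 °C. Supernatant treated with TCA at 50 °C to convert N-formylkynurenine, kynurenine detected with p-dimethylaminobenzaldehyde at 490 nm; IC50 by non-linear regression of inhibition versus DMSO control.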

Test [4] has as its target T2, IDO1 in Hela cancer cells (Homo sapiens, UniProt P14902).
T2 construct: endogenous in cells; host or cells: Hela cancer cells stimulated with human IFN-γ
Kind of test: IDO1 Cellular Assay (kynurenine production in IFN-γ stimulated Hela cancer cells). As to conditions: human IFN-γ 50 ng/mL, 48 hours incubation, kynurenine at 490 nm. Type of test: cell-based. The method in brief:
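HeLa cells stimulated with 50 ng/mL IFN-γ (final) and treated 48 h with compound (0–25 μM final, 0.25% DMSO). Supernatant kynurenine measured after TCA hydrolysis and p-dimethylaminobenzaldehyde reaction at 490 nm; inhibition vs DMSO control, IC50 by non-linear regression.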

T1 sequence (P48775 whole entry): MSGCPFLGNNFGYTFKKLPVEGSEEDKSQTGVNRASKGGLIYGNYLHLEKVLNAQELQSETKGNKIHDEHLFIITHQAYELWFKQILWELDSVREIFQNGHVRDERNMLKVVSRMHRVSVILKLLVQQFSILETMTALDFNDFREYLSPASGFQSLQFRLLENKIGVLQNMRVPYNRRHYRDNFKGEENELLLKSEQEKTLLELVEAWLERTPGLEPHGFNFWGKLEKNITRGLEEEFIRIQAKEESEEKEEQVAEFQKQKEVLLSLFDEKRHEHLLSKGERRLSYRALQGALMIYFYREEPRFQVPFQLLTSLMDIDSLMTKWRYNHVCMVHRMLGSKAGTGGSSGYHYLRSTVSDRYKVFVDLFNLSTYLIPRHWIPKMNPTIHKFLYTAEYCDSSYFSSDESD
T2 sequence (P14902 whole entry): as the sequence (P14902 whole entry) above
Recombinant human TDO2, sequence (P48775 whole entry): as the sequence (P48775 whole entry) above

As to `CC1(C)C2CN(c3cc(Cl)cc4[nH]ncc34)CC2CN1S(C)(=O)=O` (single isomer, unassigned) [Example 1a], the IC50 was greater than 1000 nM in test [1], no more than 100 nM in test [2] and 500 to 1000 nM in test [3].

On to `CS(=O)(=O)N1C[C@H]2CN(c3cc(Cl)cc4[nH]ncc34)C[C@H]2C1` [Example 12, 6-chloro-4-((3aR,6aS)-5-(methylsulfonyl)hexahydropyrrolo[3,4-c]pyrrol-2(1H)-yl)-1H-indazole], for which the IC50 in test [1] is greater than 1000 nM; in test [3] it was no more than 500 nM.

As for `CS(=O)(=O)N1CCCC2CN(c3cc(Cl)cc4[nH]ncc34)CC21` (stereo not shown) [Example 13, 6-chloro-4-(1-(methylsulfonyl)hexahydro-1H-pyrrolo[3,4-b]pyridin-6(2H)-yl)-1H-indazole], the IC50 in test [1] is greater than 1000 nM; in test [3], 500 to 1000 nM.

On to `CC(=O)N1C[C@@H]2CN(c3cc(Cl)cc4[nH]ncc34)C[C@@H]2C1` [Example 14, 1-((3aR,6aS)-5-(6-chloro-1H-indazol-4-yl)hexahydropyrrolo[3,4-c]pyrrol-2(1H)-yl)ethanone], for which the IC50 in test [1] was greater than 1000 nM; in test [3], 500 to 1000 nM.

On to `CC(=O)N1CCCC2CN(c3cc(Cl)cc4[nH]ncc34)CC21` (stereo not shown) [Example 15, 1-(6-(6-chloro-1H-indazol-4-yl)octahydro-1H-pyrrolo[3,4-b]pyridin-1-yl)ethanone], for which the IC50 in test [1] was greater than 1000 nM; in test [3] it was no more than 500 nM.

As for `CS(=O)(=O)NC1[C@H]2CN(c3cc(Cl)cc4[nH]ncc34)C[C@@H]12` (stereo partly drawn) [Example 16, N-((1R,5S)-3-(6-chloro-1H-indazol-4-yl)-3-azabicyclo[3.1.0]hexan-6-yl)methanesulfonamide], the IC50 in test [1] was greater than 1000 nM; in test [3] it was 1000 to 5000 nM.

On to `CC(=O)NC1[C@H]2CN(c3cc(Cl)cc4[nH]ncc34)C[C@@H]12` (stereo partly drawn) [Example 17, N-((1R,5S)-3-(6-chloro-1H-indazol-4-yl)-3-azabicyclo[3.1.0]hexan-6-yl)acetamide], for which the IC50 was greater than 1000 nM in test [1] and 1000 to 5000 nM in test [3].

As to `CC(=O)N1CC2CN(c3cc(Cl)cc4[nH]ncc34)CC2C1(C)C` (stereo not shown) [Example 18, 1-(5-(6-chloro-1H-indazol-4-yl)-1,1-dimethylhexahydropyrrolo[3,4-c]pyrrol-2(1H)-yl)ethanone], the IC50 in test [1] was 500 to 1000 nM; in test [2] it was no more than 100 nM; in test [3], no more than 500 nM.

In the case of `CC(=O)N1CCC2CN(c3cc(Cl)cc4[nH]ncc34)CC21` (stereo not shown) [Example 19, 1-(5-(6-chloro-1H-indazol-4-yl)hexahydropyrrolo[3,4-b]pyrrol-1(2H)-yl)ethanone], the IC50 in test [1] was greater than 1000 nM; in test [3] it was 500 to 1000 nM.

With `Cn1ncc2c(N3CC4CCN(S(C)(=O)=O)C4C3)cc(Cl)cc21` (stereo not shown) [Example 20, 6-chloro-1-methyl-4-(1-(methylsulfonyl)hexahydropyrrolo[3,4-b]pyrrol-5(1H)-yl)-1H-indazole], the values for the IC50 in test [1] and in test [3] were greater than 1000 nM and greater than 5000 nM, respectively.

Take `CC(=O)N[C@@H]1[C@@H]2CN(c3cc(Cl)cc4[nH]ncc34)C[C@@H]21` [Example 21, N-((1R,5S,6r)-3-(6-chloro-1H-indazol-4-yl)-3-azabicyclo[3.1.0]hexan-6-yl)acetamide]: the IC50 in test [1] was greater than 1000 nM; in test [3], 1000 to 5000 nM.

Take `CS(=O)(=O)N1CCC2CN(c3cc(Cl)cc4[nH]ncc34)CC21` (stereo not shown) [Example 23, 6-chloro-4-(1-(methylsulfonyl)hexahydropyrrolo[3,4-b]pyrrol-5(1H)-yl)-1H-indazole]: the IC50 in test [1] was greater than 1000 nM; in test [3], 500 to 1000 nM.

Take `CS(=O)(=O)N[C@@H]1[C@@H]2CN(c3cc(Cl)cc4[nH]ncc34)C[C@@H]21` [Example 24, N-((1R,5S,6r)-3-(6-chloro-1H-indazol-4-yl)-3-azabicyclo[3.1.0]hexan-6-yl)methanesulfonamide]: the IC50 in test [1] was greater than 1000 nM; in test [3] it was 1000 to 5000 nM.

Take `CC1(C)C2CN(c3cc(Cl)cc4[nH]ncc34)CC2CN1C(=O)c1ccc(C#N)cc1` (stereo not shown) [Example 27, 4-(5-(6-chloro-1H-indazol-4-yl)-1,1-dimethyloctahydropyrrolo[3,4-c]pyrrole-2-carbonyl)benzonitrile]: the IC50 is greater than 1000 nM in test [1] and 500 to 1000 nM in test [3].

Turning to `CC1(C)C2CN(c3cc(Cl)cc4[nH]ncc34)CC2CN1S(=O)(=O)C1CC1` (stereo not shown) [Example 28, 6-chloro-4-(5-(cyclopropylsulfonyl)-4,4-dimethylhexahydropyrrolo[3,4-c]pyrrol-2(1H)-yl)-1H-indazole], the IC50 is greater than 1000 nM in test [1] and no more than 500 nM in test [3].

On to `O=C(N[C@H]1[C@@H]2C[C@@](O)(c3cc(Cl)cc4[nH]ncc34)C[C@@H]21)c1ccc(F)c(Br)c1` [Example 176, 3-bromo-N-((1R,3r,5S,6r)-3-(6-chloro-1H-indazol-4-yl)-3-hydroxybicyclo[3.1.0]hexan-6-yl)-4-fluorobenzamide], for which the IC50 in test [3] and in test [4] was no more than 500 nM each time.

`O=C(N[C@H]1[C@@H]2C[C@@](O)(c3cc(Cl)cc4[nH]ncc34)C[C@@H]21)c1ccnc2ccc(F)cc12` [Example 177, N-((1R,3r,5S,6r)-3-(6-chloro-1H-indazol-4-yl)-3-hydroxybicyclo[3.1.0]hexan-6-yl)-6-fluoroquinoline-4-carboxamide]: the figures for the IC50 in test [3] and in test [4] were no more than 500 nM and 500 to 1000 nM, respectively.

As for `O=C(N[C@H]1[C@@H]2C[C@@](O)(c3cc(Cl)cc4[nH]ncc34)C[C@@H]21)c1cccc(C2CC2)c1` [Example 178, N-((1R,3r,5S,6r)-3-(6-chloro-1H-indazol-4-yl)-3-hydroxybicyclo[3.1.0]hexan-6-yl)-3-cyclopropylbenzamide], the IC50 in test [3] and in test [4] was no more than 500 nM each time.

Take `O=C(N[C@H]1[C@@H]2C[C@@](O)(c3cc(Cl)cc4[nH]ncc34)C[C@@H]21)c1cncc(Cl)c1` [Example 179, 5-chloro-N-((1R,3r,5S,6r)-3-(6-chloro-1H-indazol-4-yl)-3-hydroxybicyclo[3.1.0]hexan-6-yl)nicotinamide]: the IC50 in test [3] and in test [4] was no more than 500 nM throughout.

For `O=C(N[C@H]1[C@@H]2C[C@@](O)(c3cc(Cl)cc4[nH]ncc34)C[C@@H]21)c1ccc(F)c(OC(F)(F)F)c1` [Example 180, N-((1R,3r,5S,6r)-3-(6-chloro-1H-indazol-4-yl)-3-hydroxybicyclo[3.1.0]hexan-6-yl)-4-fluoro-3-(trifluoromethoxy)benzamide], the IC50 in test [3] and in test [4] was no more than 500 nM throughout.

Regarding `N#Cc1cncc(C(=O)N[C@H]2[C@@H]3C[C@@](O)(c4cc(Cl)cc5[nH]ncc45)C[C@@H]32)c1` [Example 181, N-((1R,3r,5S,6r)-3-(6-chloro-1H-indazol-4-yl)-3-hydroxybicyclo[3.1.0]hexan-6-yl)-5-cyanonicotinamide], the IC50 in test [3] and in test [4] was no more than 500 nM throughout.

For the compound `O=C(N[C@H]1[C@@H]2C[C@@](O)(c3cc(Cl)cc4[nH]ncc34)C[C@@H]21)c1cncc(C(F)(F)F)c1` [Example 182, N-((1R,3r,5S,6r)-3-(6-chloro-1H-indazol-4-yl)-3-hydroxybicyclo[3.1.0]hexan-6-yl)-5-(trifluoromethyl)nicotinamide], the IC50 in test [3] and in test [4] was no more than 500 nM in each case.

(Values after US11548868B2, “Heterocyclic compounds, compositions comprising heterocyclic compound, and methods of use thereof” (JS INNOPHARM (SHANGHAI) LTD, priority 2017, dated 2023).)
